# Reference: patent publication US20260166128A1, “HUMAN AMYLIN ANALOG, AND DERIVATIVE THEREOF AND USE THEREOF” (priority 2022, published 2026)
# Numbered stars: 1 amine (or outer) side, 2 acyl side, 3 side chain; on linkers, the order of the positions; unused ones are H or OH. Bridge positions count the residues as written; N and C are the ends. Square brackets hold non-standard residues; d marks the D form. Peptide text beside a SMILES is read from it. * marks the point of attachment. C20 diacid = O=C(O)CCCCCCCCCCCCCCCCCCC(=O)*; γGlu = O=C(O)[C@H](CCC(=O)[*:2])N[*:1]; Hyp = O=C(O)[C@@H]1C[C@@H](O)CN1; X3 = O=C(C1CCC(CN[*:1])CC1)[*:2]; AEEA = NCCOCCOCC(=O)O; Aoc = NCCCCCCCC(=O)O; Inp = O=C(O)C1CCNCC1; Sar = CNCC(=O)O
# Target: T1, human amylin receptor (Homo sapiens, UniProt O60896+P30988)
# T1 construct: host or cells: CHO-K1/Ga15/AMY3 cells, further stably transfected with a CRE-luciferase plasmid
# T1 sequence (P30988 25-474): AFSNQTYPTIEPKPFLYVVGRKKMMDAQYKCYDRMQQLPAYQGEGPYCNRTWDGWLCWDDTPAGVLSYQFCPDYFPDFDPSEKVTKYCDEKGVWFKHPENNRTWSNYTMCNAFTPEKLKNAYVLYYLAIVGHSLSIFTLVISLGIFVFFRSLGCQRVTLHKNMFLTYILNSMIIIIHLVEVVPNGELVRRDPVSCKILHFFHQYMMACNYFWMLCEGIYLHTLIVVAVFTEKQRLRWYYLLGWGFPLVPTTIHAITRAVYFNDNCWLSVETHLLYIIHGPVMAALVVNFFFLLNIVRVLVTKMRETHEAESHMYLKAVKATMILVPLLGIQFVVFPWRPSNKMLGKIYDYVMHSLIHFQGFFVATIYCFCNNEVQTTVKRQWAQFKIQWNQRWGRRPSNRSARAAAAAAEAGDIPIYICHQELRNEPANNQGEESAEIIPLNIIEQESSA
# T1 sequence (O60896 24-148 partner): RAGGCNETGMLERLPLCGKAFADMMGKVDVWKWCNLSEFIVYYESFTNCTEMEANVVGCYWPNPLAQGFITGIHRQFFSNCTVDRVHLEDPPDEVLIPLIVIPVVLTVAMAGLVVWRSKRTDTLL
# Test: Luciferase assay of amylin derivatives in amylin receptor/CRE-luc CHO cell line
# Assay type: cell-based
# Details: CHO-K1/Ga15/AMY3 CRE-luc cells, 24 hours incubation, F12 medium containing 10% FBS; read-out: EC50
# Method: The experiment was intended to detect the activity or efficacy of the amylin derivatives on a human amylin receptor in vitro by luciferase assay.
# 50 μL of growth medium (F12 medium containing 10% FBS) was added into each well of a white 96-well plate, and the stably transfected amylin/CRE-lue CHO cells were inoculated into the white 96-well plate at a density of about 20,000 cells/well for activity determination.
row,SMILES,EC50 [nM]
1,CC[C@H](C)[C@H](NC(=O)[C@@H]1CCCN1C(=O)CN(C)C(=O)[C@H](CC(C)C)NC(=O)[C@H](CC(N)=O)NC(=O)[C@H](CC(N)=O)NC(=O)[C@H](CO)NC(=O)[C@H](CO)NC(=O)[C@H](Cc1c[nH]cn1)NC(=O)[C@H](CCCNC(=N)N)NC(=O)[C@H](CC(C)C)NC(=O)[C@H](Cc1ccccc1)NC(=O)[C@H](CC(=O)O)NC(=O)[C@H](C)NC(=O)[C@H](CC(C)C)NC(=O)[C@H](CCCNC(=N)N)NC(=O)[C@H](CCC(N)=O)NC(=O)[C@@H](NC(=O)[C@H](C)NC(=O)[C@@H]1CSSC[C@H](NC(=O)[C@H](CCCCN)NC(=O)CC[C@H](NC(=O)CCCCCCCCCCCCCCCCCCC(=O)O)C(=O)O)C(=O)N[C@@H](CC(N)=O)C(=O)N[C@@H]([C@@H](C)O)C(=O)N[C@@H](C)C(=O)N[C@@H]([C@@H](C)O)C(=O)N1)[C@@H](C)O)C(=O)N[C@@H](CC(C)C)C(=O)N1CCC[C@H]1C(=O)N1CCC[C@H]1C(=O)N[C@H](C(=O)N[C@@H](CC(N)=O)C(=O)N[C@H](C(=O)NCC(=O)N[C@@H](CO)C(=O)N[C@@H](CC(N)=O)C(=O)N[C@H](C(=O)N1CCC[C@H]1C(N)=O)[C@@H](C)O)C(C)C)[C@@H](C)O [PD172] ({C20 diacid-γGlu}-KCNTATCATQRLADFLRHSSNNL[Sar]PILPPTNVGSNTP-NH2; disulfide 2-7 (inferred)),0.075
2,CC[C@H](C)[C@H](NC(=O)[C@@H]1CCCN1C(=O)C1CCC(CNC(=O)[C@H](CC(C)C)NC(=O)[C@H](CC(N)=O)NC(=O)[C@H](CC(N)=O)NC(=O)[C@H](CO)NC(=O)[C@H](CO)NC(=O)[C@H](Cc2c[nH]cn2)NC(=O)[C@H](CCCNC(=N)N)NC(=O)[C@H](CC(C)C)NC(=O)[C@H](Cc2ccccc2)NC(=O)[C@H](CC(=O)O)NC(=O)[C@H](C)NC(=O)[C@H](CC(C)C)NC(=O)[C@H](CCCNC(=N)N)NC(=O)[C@H](CCC(N)=O)NC(=O)[C@@H](NC(=O)[C@H](C)NC(=O)[C@@H]2CSSC[C@H](NC(=O)[C@H](CCCCN)NC(=O)CC[C@H](NC(=O)CCCCCCCCCCCCCCCCCCC(=O)O)C(=O)O)C(=O)N[C@@H](CC(N)=O)C(=O)N[C@@H]([C@@H](C)O)C(=O)N[C@@H](C)C(=O)N[C@@H]([C@@H](C)O)C(=O)N2)[C@@H](C)O)CC1)C(=O)N[C@@H](CC(C)C)C(=O)N1CCC[C@H]1C(=O)N1CCC[C@H]1C(=O)N[C@H](C(=O)N[C@@H](CC(N)=O)C(=O)N[C@H](C(=O)NCC(=O)N[C@@H](CO)C(=O)N[C@@H](CC(N)=O)C(=O)N[C@H](C(=O)N1CCC[C@H]1C(N)=O)[C@@H](C)O)C(C)C)[C@@H](C)O (stereo partly shown) [PD173] ({C20 diacid-γGlu}-KCNTATCATQRLADFLRHSSNNL[X3]PILPPTNVGSNTP-NH2; disulfide 2-7),0.064
3,CC[C@H](C)[C@H](NC(=O)[C@@H]1CCCN1C(=O)CCCCCCCNC(=O)[C@H](CC(C)C)NC(=O)[C@H](CC(N)=O)NC(=O)[C@H](CC(N)=O)NC(=O)[C@H](CO)NC(=O)[C@H](CO)NC(=O)[C@H](Cc1c[nH]cn1)NC(=O)[C@H](CCCNC(=N)N)NC(=O)[C@H](CC(C)C)NC(=O)[C@H](Cc1ccccc1)NC(=O)[C@H](CC(=O)O)NC(=O)[C@H](C)NC(=O)[C@H](CC(C)C)NC(=O)[C@H](CCCNC(=N)N)NC(=O)[C@H](CCC(N)=O)NC(=O)[C@@H](NC(=O)[C@H](C)NC(=O)[C@@H]1CSSC[C@H](NC(=O)[C@H](CCCCN)NC(=O)CC[C@H](NC(=O)CCCCCCCCCCCCCCCCCCC(=O)O)C(=O)O)C(=O)N[C@@H](CC(N)=O)C(=O)N[C@@H]([C@@H](C)O)C(=O)N[C@@H](C)C(=O)N[C@@H]([C@@H](C)O)C(=O)N1)[C@@H](C)O)C(=O)N[C@@H](CC(C)C)C(=O)N1CCC[C@H]1C(=O)N1CCC[C@H]1C(=O)N[C@H](C(=O)N[C@@H](CC(N)=O)C(=O)N[C@H](C(=O)NCC(=O)N[C@@H](CO)C(=O)N[C@@H](CC(N)=O)C(=O)N[C@H](C(=O)N1CCC[C@H]1C(N)=O)[C@@H](C)O)C(C)C)[C@@H](C)O [PD174] ({C20 diacid-γGlu}-KCNTATCATQRLADFLRHSSNNL[Aoc]PILPPTNVGSNTP-NH2; disulfide 2-7),0.046
4,CC[C@H](C)[C@H](NC(=O)[C@@H]1CCCN1C(=O)[C@H](CCCCN)NC(=O)[C@H](CC(C)C)NC(=O)[C@H](CC(N)=O)NC(=O)[C@H](CC(N)=O)NC(=O)[C@H](CO)NC(=O)[C@H](CO)NC(=O)[C@H](Cc1c[nH]cn1)NC(=O)[C@H](CCCNC(=N)N)NC(=O)[C@H](CC(C)C)NC(=O)[C@H](Cc1ccccc1)NC(=O)[C@H](CC(=O)O)NC(=O)[C@H](C)NC(=O)[C@H](CC(C)C)NC(=O)[C@H](CCCNC(=N)N)NC(=O)[C@H](CCC(N)=O)NC(=O)[C@@H](NC(=O)[C@H](C)NC(=O)[C@@H]1CSSC[C@H](NC(=O)[C@H](CCCCN)NC(=O)CC[C@H](NC(=O)COCCOCCNC(=O)COCCOCCNC(=O)CCCCCCCCCCCCCCCCCCC(=O)O)C(=O)O)C(=O)N[C@@H](CC(N)=O)C(=O)N[C@@H]([C@@H](C)O)C(=O)N[C@@H](C)C(=O)N[C@@H]([C@@H](C)O)C(=O)N1)[C@@H](C)O)C(=O)N[C@@H](CC(C)C)C(=O)N1CCC[C@H]1C(=O)N1CCC[C@H]1C(=O)N[C@H](C(=O)N[C@@H](CC(N)=O)C(=O)N[C@H](C(=O)NCC(=O)N[C@@H](CO)C(=O)N[C@@H](CC(N)=O)C(=O)N[C@H](C(=O)N1C[C@H](O)C[C@H]1C(N)=O)[C@@H](C)O)C(C)C)[C@@H](C)O [PD176] ({C20 diacid-AEEA-AEEA-γGlu}-KCNTATCATQRLADFLRHSSNNLKPILPPTNVGSNT[Hyp]-NH2; disulfide 2-7),0.029
5,CC[C@H](C)[C@H](NC(=O)[C@@H]1CCCN1C(=O)[C@H](CCCCN)NC(=O)[C@H](CC(C)C)NC(=O)[C@H](CC(N)=O)NC(=O)[C@H](CC(N)=O)NC(=O)[C@H](CO)NC(=O)[C@H](CO)NC(=O)[C@H](Cc1c[nH]cn1)NC(=O)[C@H](CCCNC(=N)N)NC(=O)[C@H](CC(C)C)NC(=O)[C@H](Cc1ccccc1)NC(=O)[C@H](CC(=O)O)NC(=O)[C@H](C)NC(=O)[C@H](CC(C)C)NC(=O)[C@H](CCCNC(=N)N)NC(=O)[C@H](CCC(N)=O)NC(=O)[C@@H](NC(=O)[C@H](C)NC(=O)[C@@H]1CSSC[C@H](NC(=O)[C@H](CCCCN)NC(=O)COCCOCCNC(=O)COCCOCCNC(=O)C2CCN(C(=O)CCCCCCCCCCCCCCCCCCC(=O)O)CC2)C(=O)N[C@@H](CC(N)=O)C(=O)N[C@@H]([C@@H](C)O)C(=O)N[C@@H](C)C(=O)N[C@@H]([C@@H](C)O)C(=O)N1)[C@@H](C)O)C(=O)N[C@@H](CC(C)C)C(=O)N1CCC[C@H]1C(=O)N1CCC[C@H]1C(=O)N[C@H](C(=O)N[C@@H](CC(N)=O)C(=O)N[C@H](C(=O)NCC(=O)N[C@@H](CO)C(=O)N[C@@H](CC(N)=O)C(=O)N[C@H](C(=O)N1C[C@H](O)C[C@H]1C(N)=O)[C@@H](C)O)C(C)C)[C@@H](C)O [PD179] ({C20 diacid-Inp-AEEA-AEEA}-KCNTATCATQRLADFLRHSSNNLKPILPPTNVGSNT[Hyp]-NH2; disulfide 2-7),0.017
6,CC[C@H](C)[C@H](NC(=O)[C@@H]1CCCN1C(=O)[C@H](CCCCN)NC(=O)[C@H](CC(C)C)NC(=O)[C@H](CC(N)=O)NC(=O)[C@H](CC(N)=O)NC(=O)[C@H](CO)NC(=O)[C@H](CO)NC(=O)[C@H](Cc1c[nH]cn1)NC(=O)[C@H](CCCNC(=N)N)NC(=O)[C@H](CC(C)C)NC(=O)[C@H](Cc1ccccc1)NC(=O)[C@H](CC(=O)O)NC(=O)[C@H](C)NC(=O)[C@H](CC(C)C)NC(=O)[C@H](CCCNC(=N)N)NC(=O)[C@H](CCC(N)=O)NC(=O)[C@@H](NC(=O)[C@H](C)NC(=O)[C@@H]1CSSC[C@H](NC(=O)[C@H](CCCCN)NC(=O)C2CCN(C(=O)COCCOCCNC(=O)COCCOCCNC(=O)CCCCCCCCCCCCCCCCCCC(=O)O)CC2)C(=O)N[C@@H](CC(N)=O)C(=O)N[C@@H]([C@@H](C)O)C(=O)N[C@@H](C)C(=O)N[C@@H]([C@@H](C)O)C(=O)N1)[C@@H](C)O)C(=O)N[C@@H](CC(C)C)C(=O)N1CCC[C@H]1C(=O)N1CCC[C@H]1C(=O)N[C@H](C(=O)N[C@@H](CC(N)=O)C(=O)N[C@H](C(=O)NCC(=O)N[C@@H](CO)C(=O)N[C@@H](CC(N)=O)C(=O)N[C@H](C(=O)N1C[C@H](O)C[C@H]1C(N)=O)[C@@H](C)O)C(C)C)[C@@H](C)O [PD180] ({C20 diacid-AEEA-AEEA-Inp}-KCNTATCATQRLADFLRHSSNNLKPILPPTNVGSNT[Hyp]-NH2; disulfide 2-7),0.016
7,CC[C@H](C)[C@H](NC(=O)[C@@H]1CCCN1C(=O)[C@H](CCCCN)NC(=O)[C@H](CC(C)C)NC(=O)[C@H](CC(N)=O)NC(=O)[C@H](CC(N)=O)NC(=O)[C@H](CO)NC(=O)[C@H](CO)NC(=O)[C@H](Cc1c[nH]cn1)NC(=O)[C@H](CCCNC(=N)N)NC(=O)[C@H](CC(C)C)NC(=O)[C@H](Cc1ccccc1)NC(=O)[C@H](CC(=O)O)NC(=O)[C@H](C)NC(=O)[C@H](CC(C)C)NC(=O)[C@H](CCCNC(=N)N)NC(=O)[C@H](CCC(N)=O)NC(=O)[C@@H](NC(=O)[C@H](C)NC(=O)[C@@H]1CSSC[C@H](NC(=O)[C@H](CCCCN)NC(=O)[C@H](CC(=O)O)NC(=O)COCCOCCNC(=O)COCCOCCNC(=O)CCCCCCCCCCCCCCCCCCC(=O)O)C(=O)N[C@@H](CC(N)=O)C(=O)N[C@@H]([C@@H](C)O)C(=O)N[C@@H](C)C(=O)N[C@@H]([C@@H](C)O)C(=O)N1)[C@@H](C)O)C(=O)N[C@@H](CC(C)C)C(=O)N1CCC[C@H]1C(=O)N1CCC[C@H]1C(=O)N[C@H](C(=O)N[C@@H](CC(N)=O)C(=O)N[C@H](C(=O)NCC(=O)N[C@@H](CO)C(=O)N[C@@H](CC(N)=O)C(=O)N[C@H](C(=O)N1C[C@H](O)C[C@H]1C(N)=O)[C@@H](C)O)C(C)C)[C@@H](C)O [PD182] ({C20 diacid-AEEA-AEEA}-DKCNTATCATQRLADFLRHSSNNLKPILPPTNVGSNT[Hyp]-NH2; disulfide 3-8),0.034
